Results from patent US20100035865A1, “Sulfonamides and Pharmaceutical Compositions Thereof” (PFIZER INC, priority 2007, published 2010).
“And” between values parts separate entries of the source, which are not always exact repeats. Equal values may be shown once. Read-outs that look alike come from different tables or passages of the source.

Assays:
AMPA receptors [1] = assay: AMPA ES Cell FLIPR Screen, G7330B (EC50 and % effect); format: cell-based, murine; conditions: for EC50: ES cell-derived neurons, 32 uM AMPA challenge
Method: (§1) The murine ES cell line used was E14-Sx1-16C, which has a targeted mutation in the Sox1 gene, a neuroectodermal marker, that offers G418 resistance when the Sox1 gene is expressed (Stem Cell Sciences). ES cells were maintained undifferentiated as previously described (Roach). […] ES cells were plated on gelatin-coated dishes (BD Biosciences), the media was changed daily and the cells were dissociated with 0.05% Trypsin EDTA (Invitrogen) every other day.
(§2) Embryoid Body Formation: Prior to embryoid body (EB) formation the ES cells were weaned from FBS onto Knockout Serum Replacement (KSR) (Invitrogen). To form EBs, ES cells were dissociated into a single cell suspension then 3×10^6 cells were plated in bacteriology dishes (Nunc 4014) and grown as a suspension culture in NeuroEB-I medium that consisted of Knockout™ D-MEM (Invitrogen), supplemented with 10% KSR (Invitrogen), 0.2 mM L-Glutamine (Invitrogen), 0.1 mM MEM non-essential amino acids (Invitrogen), 30 μg/ml Gentamicin (Invitrogen), 1000 u/ml ESGRO (Chemicon), 0.1 mM 2-Mercaptoethanl (Sigma) and 150 ng/ml Transferrin (Invitrogen). The plates were put on a Stovall Belly Button shaker in an atmospheric oxygen incubator. The media was changed on day 2 of EB formation with NeuroEB-I and on day 4 with NeuroEB-II (NeuroEB-I plus 1 μg/ml mNoggin [R&D Systems]).
(§3) Neuronal Precursor Selection and Expansion: On day 5 of EB formation, EBs were dissociated with 0.05% Trypsin EDTA, and 4×10^6 cells/100 mm dish were plated on Laminin coated tissue culture dishes in NeuroII-G418 medium that consisted of a base medium of a 1:1 mixture of D-MEM/F12 supplemented with N2 supplements and NeuroBasal Medium supplemented with B27 supplement and 0.1 mM L-Glutamine (all from Invitrogen). The base medium was then supplemented with 10 ng/ml bFGF (Invitrogen), 1 μg/ml mNoggin, 500 ng/ml SHH-N, 100 ng/ml FGF-8b (R&D Systems), 1 μg/ml Laminin and 200 μg/ml G418 (Invitrogen) for selection of neuronal precursors expressing Sox-1. The plates were put in an incubator that contained 2% Oxygen and were maintained in these conditions. During the 6-day selection period, the NeuroII media was changed daily. On day 6, the surviving neuronal precursor foci were dissociated with 0.05% Trypsin EDTA and the cells were plated at a density of 1.5×10^6 cells/100 mm Laminin coated dish in NeuroII-G418 medium. The cells were dissociated every other day for expansion, and prepared for Cryopreservation at passage 3 or 4. The cryopreservation medium contained 50% KSR, 10% Dimethyl Sulfoxide (DMSO) (Sigma) and 40% NeuroI-G418I medium. Neuronas precursors were crypreserved at a concentration of 4×10^6cells/ml and 1 ml/cryovial in a controlled rate freezer overnight then transferred to an ultra-low freezer or liquid nitrogen for long-term storage,
(§4) Neuronal Differentiation: Cryopreserved ES cell-derived neuronal precursors were thawed by the rapid thaw method in a 37-degree water-bath. The cells were transferred from the cryovial to a 100 mm Laminin coated tissue culture dish that already contained NeuroII-G418 that had been equilibrated in a 2% Oxygen incubator. The media was changed with fresh NeuroII-G418 the next day. The cells were dissociated every other day as described above for expansion to generate enough cells to plate for the screen. For the screen, the cells were plated into 384-well poly-d-lysine coated tissue culture dishes (BD Biosciences) by the automated SelecT at a cell density of 6K cells/well in differentiation medium NeuroIII that contained a 4:1 ratio of the NeuroBasalMedium/B27:D-MEM/F12/N2 supplemented with 1 μM cAMP (Sigma), 200 μM Ascorbic Acid (Sigma), 1 μg/ml Laminin (Invitrogen) and 10 ng/ml BDNF (R&D Systems). The plates were put in an incubator with 2% Oxygen and allowed to complete the differentiation process for 7 days. The cells could then be used over a 5-day period for the high throughput screen.
(§5) Procedure for AMPA ES Cell FLIPR Screen […]

AMPA receptors [2] = assay: AMPA ES Cell FLIPR Screen, G7330A (single dose % effect); format: cell-based, murine; conditions: Dose 32.0 uM; mean (range and n in cells below); ES cell-derived neurons, 32 uM AMPA challenge; negative control AMPA alone, positive control AMPA plus cyclothiazide
Method: as §1, §2, §3, §4, §5

[3] = Dose 32.0 uM, individual determinations
[4] = individual determinations, read-out: G7330B (U): EC50
[5] = mean of individual determinations (range and n in cells below), read-out: G7330B mean EC50
[6] = Dose 31.6 uM, individual determinations

| EC50 (AMPA receptors [1]; [4]) | EC50 (AMPA receptors [1]; [5]) | SMILES | G7330B (U): % Effect (AMPA receptors [1]; [3]) | G7330A: % Effect (AMPA receptors [2]) | G7330B (U): % Effect (AMPA receptors [1]; [6]) |
| --- | --- | --- | --- | --- | --- |
|  |  | CCS(=O)(=O)N[C@@H]1CNCC[C@@H]1c1ccc(-c2ccccc2)cc1 (relative stereo) [Example 11, Ethanesulfonic acid (cis-4-biphenyl-4-yl-piperidin-3-yl)-amide] | 1.55% and 3.14% and 2.25% and 2.45% | 2.34% |  |
| > 32 µM | > 32 µM | O=S(=O)(NC1CNCCC1c1ccc(-c2ccccc2)cc1)C1CC1 (stereo not drawn) [Example 14, Cyclopropanesulfonic acid(trans-4-biphenyl-4-yl-piperidin-3-yl)-amide] | 4.61% and 2.97% and 3.26% and 0.0952% and 0.150% and 1.02% | 3.36% |  |
| > 32 µM | > 32 µM | CCCS(=O)(=O)N[C@@H]1CNCC[C@H]1c1ccc(-c2ccccc2)cc1 (relative stereo) [Example 10, Propane-1-sulfonic acid (trans-4-biphenyl-4-yl-piperidin-3-yl)-amide] | 23.4% and 19.5% and 18.5% and 5.64% and 6.55% and 7.27% | 11.2% |  |
| > 32 µM | > 32 µM | CCS(=O)(=O)N[C@@H]1CNCC[C@H]1c1ccc(-c2ccccc2)cc1 (relative stereo) [Example 9, Ethanesulfonic acid (trans-4-biphenyl-4-yl-piperidin-3-yl)-amide] | 73.4% and 60.8% and 66.9% | 59.1% |  |
| 4.43 µM and 5.97 µM and 3.78 µM and 8.04 µM | 5.32 µM | CC(C)S(=O)(=O)N[C@@H]1CN(C)CC[C@H]1c1ccc(-c2ccccc2)cc1 (relative stereo) [Example 2, propane-2-sulfonic acid (trans-4-biphenyl-4-yl-1-methyl-piperidin-3-yl)-amide] | 127% and 141% and 134% and 142% and 151% and 173% and 180% | 112% |  |
| 16.8 µM and 11.1 µM and 12.5 µM | 13.2 µM | CC(C)S(=O)(=O)N[C@@H]1CNCC[C@H]1c1ccc(-c2ccccc2)cc1 (relative stereo) [Example 1, propane-2-sulfonic acid (trans-4-biphenyl-4-yl-piperidin-3-yl)-amide] | 86.8% and 115% and 132% and 92.5% and 85.0% | 87.1% |  |
|  |  | CC(C)S(=O)(=O)N[C@@H]1CN(C)CC[C@@H]1c1ccc(-c2ccccc2)cc1 (relative stereo) [Example 7, propane-2-sulfonic acid (cis-4-biphenyl-4-yl-1-methyl-piperidin-3-yl)-amide] |  | −0.867% | −0.0209% and −0.612% and −1.41% and −1.42% |
| > 10 µM | > 10 µM | CC(C)S(=O)(=O)N[C@@H]1COCC[C@H]1c1ccc(-c2ccc(S(C)(=O)=O)cc2)cc1 [Example 37, Propane-2-sulfonic acid[trans-4-(4′-methanesulfonyl-biphenyl-4-yl)-tetrahydro-pyran-3-yl]-amide] |  |  |  |
| > 32 µM | > 32 µM | CC(C)S(=O)(=O)NC1CCN(S(C)(=O)=O)CC1c1ccc(-c2ccccc2)cc1 (stereo not drawn) [Example 26, Propane-2-sulfonic acid(trans-3-biphenyl-4-yl-1-methanesulfonyl-piperidin-4-yl)-amide] | 13.3% and 10.8% and 9.95% |  |  |
| > 32 µM | > 32 µM | O=S(=O)(CC(F)(F)F)NC1CNCCC1c1ccc(-c2ccccc2)cc1 (stereo not drawn) [Example 13, 2,2,2-Trifluoro-ethanesulfonic acid(trans-4-biphenyl-4-yl-piperidin-3-yl)-amide] | 27.9% and 46.2% and 59.8% and 48.9% and 30.2% and 28.1% | 43.7% |  |
| > 32 µM | > 32 µM | CC(C)S(=O)(=O)NC1CCNCC1c1ccc(-c2ccccc2Cl)cc1 (stereo not drawn) [Example 22, Propane-2-sulfonic acid[trans-3-(2′-chloro-biphenyl-4-yl)-piperidin-4-yl]-amide] | 18.9% and 23.3% and 17.1% |  |  |
| 11.9 µM | 11.9 µM | CC(C)S(=O)(=O)NC1COCCC1(O)c1ccc(-c2ccccc2)cc1 [Example 42, Propane-2-sulfonic acid((3R,4S)-rel-4-biphenyl-4-yl-4-hydroxy-tetrahydro-pyran-3-yl)-amide] |  |  | 145% and 142% and 152% |
| > 31.6 µM | > 31.6 µM | CC(C)S(=O)(=O)NC1CN(S(C)(=O)=O)CCC1c1ccc(-c2ccccc2)cc1 (stereo not drawn) [Example 6, propane-2-sulfonic acid (trans-4-biphenyl-4-yl-1-methanesulfonyl-piperidin-3-yl-amide] |  |  | 0.710% and −1.26% and 0.0628% |
| > 32 µM | > 32 µM | CC(C)S(=O)(=O)NC1CCN(C)CC1c1ccc(-c2ccccc2)cc1 (stereo not drawn) [Example 25, Propane-2-sulfonic acid(trans-3-biphenyl-4-yl-1-methyl-piperidin-4-yl)-amide] | −0.323% and 0.295% and 2.72% |  |  |
| 1.94 µM | 1.94 µM | CCOc1ccccc1-c1ccc(C2CCOCC2NS(=O)(=O)C(C)C)cc1 (stereo not drawn) [Example 33, Propane-2-sulfonic acid[trans-4-(2′-ethoxy-biphenyl-4-yl)-tetrahydro-pyran-3-yl]-amide] |  |  | 122% and 121% |
| > 10 µM | > 10 µM | CNC(=O)c1ccc(-c2ccc([C@@H]3CCOC[C@H]3NS(=O)(=O)C(C)C)cc2)cc1 (relative stereo) [Example 38, 4′-[trans-3-(Propane-2-sulfonylamino)-tetrahydro-pyran-4-yl]-biphenyl-4-carboxylic acid methylamide] |  |  |  |
| > 32 µM | > 32 µM | CC(C)S(=O)(=O)N[C@@H]1CN(C)CC[C@H]1c1ccc(-c2ccccc2)cc1 [Example 4, Propane-2-sulfonic acid ((3S,4S)-4-biphenyl-4-yl-1-methyl-piperidin-3-yl)-amide] | 4.29% and 2.21% and 2.27% and 2.45% and 2.50% and 6.32% and 2.96% and 5.62% and 0.525% |  |  |
| 6.92 µM | 6.92 µM | CC(=O)N1CCC(NS(=O)(=O)C(C)C)C(c2ccc(-c3ccccc3)cc2)C1 (stereo not drawn) [Example 27, propane-2-sulfonic acid(trans-1-acetyl-3-biphenyl-4-yl-piperidin-4-yl)-amide] | 136% and 134% and 127% |  |  |
| 7.17 µM | 7.17 µM | CC(C)S(=O)(=O)NC1CCOCC1c1ccc(-c2ccccc2)cc1 (stereo not drawn) [Example 17, Propane-2-sulfonic acid(cis-3-biphenyl-4-yl-tetrahydro-pyran-4-yl)-amide] | 150% and 138% and 125% |  |  |
| 7.04 µM | 7.04 µM | CC(C)S(=O)(=O)N[C@@H]1COCC[C@H]1c1ccc(-c2ccccc2Cl)cc1 [Example 36, Propane-2-sulfonic acid[trans-4-(2′-chloro-biphenyl-4-yl)-tetrahydro-pyran-3-yl]-amide] |  |  |  |

| SMILES | EC50 (AMPA receptors [1]; [4]) | EC50 (AMPA receptors [1]; [5]) | G7330B (U): % Effect (AMPA receptors [1]; [3]) | G7330A: % Effect (AMPA receptors [2]) | G7330B (U): % Effect (AMPA receptors [1]; [6]) |
| --- | --- | --- | --- | --- | --- |
| CC(C)S(=O)(=O)N[C@H]1COCC[C@]1(O)c1ccc(-c2ccccc2)cc1 (relative stereo) [Example 41, Propane-2-sulfonic acid((3S,4S)-rel-4-biphenyl-4-yl-4-hydroxytetrahydro-pyran-3-yl)-amide] | 3.05 µM | 3.05 µM |  |  | 58.3% and 66.6% |
